Where two headings read alike, the source gives them in different places.
System: forty-four human cancer cell lines
Test: Cell proliferation assay (ATPlite, 72 hours) in the 44 cell line Oncolines panel
Format: cell-based
Settings: Homo sapiens
[1] = 769-P, cell line 769-P, read-out: cell panel IC50, 769-P
[2] = 786-0, cell line 786-0, read-out: cell panel IC50, 786-0
[3] = A 172, read-out: cell panel IC50, A-172, cell line A-172
[4] = A204, cell line A-204, read-out: cell panel IC50, A-204
[5] = A498, read-out: cell panel IC50, A-498, cell line A-498
[6] = A549, read-out: cell panel IC50, A-549, cell line A-549
[7] = A-375, cell line A375, read-out: cell panel IC50, A375
[8] = A-427, read-out: cell panel IC50, A-427, cell line A-427
[9] = ACHN, cell line ACHN, read-out: cell panel IC50, ACHN
[10] = AN3-CA, cell line AN3 CA, read-out: cell panel IC50, AN3 CA
[11] = AU565, read-out: cell panel IC50, AU-565, cell line AU-565
[12] = BT-20, cell line BT-20, read-out: cell panel IC50, BT-20
[13] = BT-549, read-out: cell panel IC50, BT-549, cell line BT-549
[14] = BXPC-3, cell line BxPC-3, read-out: cell panel IC50, BxPC-3
[15] = C-33-A, cell line C-33 A, read-out: cell panel IC50, C-33 A
[16] = CAL-27, cell line CAL 27, read-out: cell panel IC50, CAL 27
[17] = CCRF-CEM, cell line CCRF-CEM, read-out: cell panel IC50, CCRF-CEM
[18] = DLD-1, cell line DLD-1, read-out: cell panel IC50, DLD-1
[19] = FaDu, cell line FaDu, read-out: cell panel IC50, FaDu
[20] = HCT-15, cell line HCT-15, read-out: cell panel IC50, HCT-15
[21] = HCT-116, read-out: cell panel IC50, HCT-116, cell line HCT-116
[22] = Hs-578T, cell line Hs 578T, read-out: cell panel IC50, Hs 578T
[23] = Jurkat E6.1, cell line Jurkat E6.1, read-out: cell panel IC50, Jurkat E6.1
[24] = K562, read-out: cell panel IC50, K-562, cell line K-562
[25] = LS174T, read-out: cell panel IC50, LS 174T, cell line LS 174T
[26] = LoVo, cell line LoVo, read-out: cell panel IC50, LoVo
[27] = MG-63, cell line MG-63, read-out: cell panel IC50, MG-63
[28] = MOLT-4, cell line MOLT-4, read-out: cell panel IC50, MOLT-4
[29] = MeWo, cell line MeWo, read-out: cell panel IC50, MeWo
[30] = NCI-H82, cell line NCI-H82, read-out: cell panel IC50, NCI-H82
[31] = NCI-H460, cell line NCI-H460, read-out: cell panel IC50, NCI-H460
[32] = OVCAR-3, cell line OVCAR-3, read-out: cell panel IC50, OVCAR-3
[33] = RPMI-7951, cell line RPMI-7951, read-out: cell panel IC50, RPMI-7951
[34] = SHP77, cell line SHP-77, read-out: cell panel IC50, SHP-77
[35] = SK-N-AS, cell line SK-N-AS, read-out: cell panel IC50, SK-N-AS
[36] = SW48, cell line SW48, read-out: cell panel IC50, SW48
[37] = SW480, cell line SW480, read-out: cell panel IC50, SW480
[38] = SW-620, cell line SW620, read-out: cell panel IC50, SW620
[39] = U2OS, cell line U-2 OS, read-out: cell panel IC50, U-2 OS
[40] = U-87 MG, 72 h, U-87 MG cell line, ATPlite, 72 hours, read-out: IC50 in cell proliferation assay (table S5 cellpanel data)
[41] = cell line J82, read-out: cell panel IC50, J82
[42] = cell line PA-1, read-out: cell panel IC50, PA-1
[43] = cell line SJCRH30, read-out: cell panel IC50, SJCRH30
[44] = cell line SR, read-out: cell panel IC50, SR

COc1cc([C@@H]2c3cc4c(cc3[C@@H](O[C@@H]3O[C@@H]5CO[C@@H](C)O[C@H]5[C@H](O)[C@H]3O)[C@H]3COC(=O)[C@H]23)OCO4)cc(OC)c1O [etoposide]
IC50 [1]: 0.815 µM | IC50 [2]: 3.68 µM | IC50 [3]: 11.1 µM | IC50 [4]: 0.653 µM | IC50 [5]: 1.01 µM | IC50 [6]: 0.859 µM | IC50 [7]: 0.397 µM | IC50 [8]: 0.347 µM | IC50 [9]: 1.17 µM | IC50 [10]: 3.18 µM | IC50 [11]: 0.993 µM | IC50 [12]: 7.38 µM | IC50 [13]: 1.18 µM | IC50 [14]: 10.7 µM | IC50 [15]: 0.376 µM | IC50 [16]: 0.525 µM | IC50 [17]: 0.106 µM | IC50 [18]: 5.64 µM | IC50 [19]: 1.35 µM | IC50 [20]: 1.56 µM | IC50 [21]: 0.658 µM | IC50 [22]: 4 µM | IC50 [23]: 0.24 µM | IC50 [24]: 1.14 µM | IC50 [25]: 0.219 µM | IC50 [26]: 0.739 µM | IC50 [27]: 2.1 µM | IC50 [28]: 0.057 µM | IC50 [29]: 5.24 µM | IC50 [30]: 1.01 µM | IC50 [31]: 0.331 µM | IC50 [32]: 22.4 µM | IC50 [33]: 0.701 µM | IC50 [34]: > 31.6 µM | IC50 [35]: 1.37 µM | IC50 [36]: 0.205 µM | IC50 [37]: 4.65 µM | IC50 [38]: 4.18 µM | IC50 [39]: 3.33 µM | IC50 [40]: 29.4 µM | IC50 [41]: 4.94 µM | IC50 [42]: 0.083 µM | IC50 [43]: 1.03 µM | IC50 [44]: 0.047 µM

CNC(=O)c1ccccc1Sc1ccc2c(/C=C/c3ccccn3)n[nH]c2c1 [axitinib]
IC50 (4-4 cell, read-out: cell panel IC50, PA-1): 1.29 µM | IC50 (A498, read-out: cell panel IC50, A-498): 3.21 µM | IC50 (A-375, read-out: cell panel IC50, A375): 5.65 µM | IC50 (HCT-116, read-out: cell panel IC50, HCT-116): 2.29 µM | IC50 (SHP77, read-out: cell panel IC50, SHP-77): 5.57 µM

O=c1[nH]cc(F)c(=O)[nH]1 [5-fluorouracil]
IC50 [1]: 4.74 µM | IC50 [2]: 2.21 µM | IC50 [3]: 0.987 µM | IC50 [4]: 1.42 µM | IC50 [5]: 1.7 µM | IC50 [6]: 1.18 µM | IC50 [7]: 3.66 µM | IC50 [8]: 1.82 µM | IC50 [9]: 2.45 µM | IC50 [10]: 7.34 µM | IC50 [11]: 1.01 µM | IC50 [12]: 6.34 µM | IC50 [13]: 1.85 µM | IC50 [14]: 5.18 µM | IC50 [15]: 4.61 µM | IC50 [16]: 4.07 µM | IC50 [17]: 15.1 µM | IC50 [18]: 1.03 µM | IC50 [19]: 1.13 µM | IC50 [20]: 1.84 µM | IC50 [21]: 1.27 µM | IC50 [22]: 7.95 µM | IC50 [23]: 3.34 µM | IC50 [24]: 5.53 µM | IC50 [25]: 4.8 µM | IC50 [26]: 3.2 µM | IC50 [27]: 3.03 µM | IC50 [28]: 2.07 µM | IC50 [29]: 4.28 µM | IC50 [30]: 1.92 µM | IC50 [31]: 1.59 µM | IC50 [32]: 3.46 µM | IC50 [33]: 1.22 µM | IC50 [34]: 22.8 µM | IC50 [35]: 2.58 µM | IC50 [36]: 1.86 µM | IC50 [37]: 1.73 µM | IC50 [38]: 4.2 µM | IC50 [39]: 2.46 µM | IC50 [40]: 2.46 µM | IC50 [41]: > 31.6 µM | IC50 [42]: 0.814 µM | IC50 [43]: 7.21 µM | IC50 [44]: 0.546 µM

CC(=O)O[C@@]12CO[C@@H]1C[C@H](O)[C@@]1(C)C(=O)[C@H](O)C3=C(C)[C@@H](OC(=O)[C@H](O)[C@@H](NC(=O)OC(C)(C)C)c4ccccc4)C[C@@](O)([C@@H](OC(=O)c4ccccc4)[C@H]21)C3(C)C [docetaxel]
IC50 [1]: 0.01 µM | IC50 [2]: 0.017 µM | IC50 [3]: 0.00325 µM | IC50 [4]: 0.003 µM | IC50 [5]: 0.013 µM | IC50 [6]: 0.00214 µM | IC50 [7]: 0.00552 µM | IC50 [8]: 0.0035 µM | IC50 [9]: 0.021 µM | IC50 [10]: 0.000902 µM | IC50 [11]: 0.00222 µM | IC50 [12]: 0.009 µM | IC50 [13]: 0.00285 µM | IC50 [14]: 0.00335 µM | IC50 [15]: 0.00285 µM | IC50 [16]: 0.00164 µM | IC50 [17]: 0.00645 µM | IC50 [18]: 0.023 µM | IC50 [19]: 0.00118 µM | IC50 [20]: 0.058 µM | IC50 [21]: 0.002 µM | IC50 [22]: 0.00213 µM | IC50 [23]: 0.002 µM | IC50 [24]: 0.00268 µM | IC50 [25]: 0.00222 µM | IC50 [26]: 0.008 µM | IC50 [27]: 0.00108 µM | IC50 [28]: 0.00174 µM | IC50 [29]: 0.00263 µM | IC50 [30]: 0.00137 µM | IC50 [31]: 0.00557 µM | IC50 [32]: 0.004 µM | IC50 [33]: 0.0019 µM | IC50 [34]: 0.138 µM | IC50 [35]: 0.00337 µM | IC50 [36]: 0.00339 µM | IC50 [37]: 0.00334 µM | IC50 [38]: 0.00225 µM | IC50 [39]: 0.00741 µM | IC50 [40]: 0.011 µM | IC50 [41]: 0.015 µM | IC50 [42]: 0.000943 µM | IC50 [43]: 0.00245 µM | IC50 [44]: 0.00217 µM

Source: paper PMC3961306, “Comparison of the Cancer Gene Targeting and Biochemical Selectivities of All Targeted Kinase Inhibitors Approved for Clinical Use” (PLoS ONE, 2014)
